The test system of series [1] is chiens. The experiment in a line: Cardiovascular tests in dogs, intraduodenal successive doses. The format is in vivo, chien. The procedure: a) Quatre chiens (poids moyen : 13,8 kg) anesthésiés au nembutal reçoivent le CRL 41 250 par voie intraduodénale, aux doses successives de 0,1 mg/kg, 0,5 mg/kg, 1 mg/kg, 2,5 mg/kg, 5 mg/kg puis 10 mg/kg. On mesure la pression artérielle, la fréquence cardiaque, le débit artériel fémoral, le débit artériel vertébral, la température rectale et on observe la coloration de la peau.
a) Deux chiens (poids moyen : 14,5 kg) reçoivent le CRL 41 252 par voie intraduodénale, aux doses successives de 0,1 mg/kg, 0,5 mg/kg, 1 mg/kg, 2,5 mg/kg, 5 mg/kg, 10 mg/kg et 20 mg/kg. On mesure la pression artérielle, la fréquence cardiaque, le débit artériel fémoral, le débit artériel vertébral, les températures rectale et cutanée et on observe la coloration de la peau.

Series [2] deals with chiens. The experiment in a line: Influence on isoprenaline effects, dog. The format is in vivo. The settings on record: chien, after dose cumulée 19,1 mg/kg I.D. From the text: (§1) b) Sur les mêmes chiens on a étudié l'influence du produit vis à vis de l'isoprénaline et de la noradrénaline.
Avec 10,pg/kg I.V. d'isoprénaline la pression artérielle diastolique du CRL 41 252 passe de 128 à […] ([…] à 6,4 x 10^3 Pa), […]

For series [3], the system named is chiens. The experiment in a line: Influence on noradrenaline hypertension, dog. The note with it: chien. The format is in vivo. As for the experimental part: as §1
L'hyptertension à la noradrénaline (2 µg/kg I.V.) est augmentée par le CRL 41 252 ([…]), la pression artérielle systolique passe de 208 à 352 mmHg (soit environ de 2,77 x 10^4 à 4,7 x 10^4Pa) au lieu de 204 à 328 mmHg (soit environ de 2,71 à 4,3 x 10 Pa).

Series [4] deals with système nerveux central (SNC). Nature of the series: General statement of CNS (antidepressant, sedative) properties. The format is in vivo.
The test system of series [5] is chiens. The experiment in a line: Influence on isoprenaline effects, dog. The format is in vivo. The settings on record: chien, isoprénaline 10 µg/kg I.V., dose cumulée de 19,1 mg/kg I.D.
Series [6] has as its system souris mâle. The note with it: in vivo. As for the experimental part:
(§2) On a résumé ci-après les résultats des essais neuropsychopharmacologiques qui ont été entrepris avec les produits préférés selon l'invention, le CRL 41 190 (Ex 1) et le CRL 41 214 (Ex 3). Dans ce résumé, les deux produits à tester mis en solution dans de l'eau distillée ont été administrés, sauf indiction contraire, par voie intrapéritonéale sous un volume de 20 ml/kg chez la souris mâle et sous un volume de 5 ml/kg chez le rat mâle. […]
La DL-0 (dose maximale non mortelle) du CRL 41 190 est supérieure à 128 mg/kg par voie I.P. chez la souris mâle, et la DL-30 est de l'ordre de 256 mg/kg.
Par voie I.P. chez la souris mâle, la DL-0 est supérieure à 256 mg/kg.

Series [7] concerns souris. Nature of the series: Global behaviour and reactivities, mouse. The format is in vivo. The note with it: I.P. As for the experimental part: as §2
(§3) Des lots de trois animaux sont observés avant puis 0,25 h, 0,5, h, 1 h, 2 h, 3 h et 24 h après administration de CRL 41 190.

The test system of series [8] is rat. The experiment in a line: Global behaviour and reactivities, rat. The settings on record: I.P. The format is in vivo. As for the experimental part:
as §2, §3

For series [9], the system named is souris. Nature of the series: Interaction with apomorphine, mouse. The format is in vivo. The procedure: • 1°) chez la souris • Des lots de 6 souris reçoivent le produit à étudier 0,50 h avant une injection sous-cutanée de 1 mg/kg ou 16 mg/kg d'apomorphine.
For series [10], the system named is rat. The experiment in a line: Interaction with apomorphine, rat. The format is in vivo. The settings on record: product I.P. 0,50 h before s.c. 0,5 mg/kg apomorphine.
Series [11] has as its system rats. The experiment in a line: Interaction with amphetamine (stereotypies), rat. The format is in vivo. The settings on record: amphétamine 2 mg/kg I.P., doses de 4 mg/kg, 16 mg/kg et surtout 64 mg/kg. As for the experimental part: L'amphétamine (2 mg/kg) est injectée par voie intrapéritonéale à des lots de 6 rats, une demi -heure après l'administration de CRL 41 190.

Series [12] concerns souris. Nature of the series: Interaction with reserpine (hypothermia, ptosis), mouse. The format is in vivo. The note with it: réserpine 2,5 mg/kg I.P. As for the experimental part:
Quatre heures après l'injection intrapéritonéale de 2,5 mg/kg de réserpine, des lots de 12 souris reçoivent le CRL 41 190. On étudie l'influence du produit à tester sur l'hypothermie et le ptôsis réserpiniques.

The subject of series [13] is souris. The experiment in a line: Interaction with oxotremorine, mouse. The format is in vivo. The settings on record: oxotrémorine 0,5 mg/kg I.P.
Series [14] relates to souris. The experiment in a line: Four-plate test, traction and electroshock, mouse. The format is in vivo.
Method: Le test est pratiqué sur des lots de 10 souris 0,50 h après l'administration du produit à étudier.
Series [15] has as its system souris. The experiment in a line: Spontaneous motility (actimeter), mouse. The format is in vivo. The settings on record: souris, I.P.; plus forte dose utilisée (128 mg/gk).
For series [16], the system named is souris. Nature of the series: Intergroup aggressiveness, mouse. The format is in vivo. The note with it: I.P., aux doses utilisées. The procedure:
Après avoir séjourné pendant 3 semaines dans chacune des moitiés d'une cage séparées par une cloison opaque, des groupes de 3 souris reçoivent le CRL 41 190. Une demi-heure plus tard, les deux groupes d'une même cage sont réunis par retrait de la cloison et on note le nombre de combats qui surviennent en 10 minutes.

The subject of series [17] is souris. The experiment in a line: Motility reduced by habituation to the enclosure, mouse. The format is in vivo. The note with it: I.P., plus forte dose utilisée (128 mg/kg).
Series [18] concerns souris. Nature of the series: Asphyxic anoxia (gallamine triethiodide), mouse. The note with it: product I.P. half an hour before triiodoéthylate de gallamine 32 mg/kg I.P. The format is in vivo.
In series [19] the test system is souris. Nature of the series: Interaction with barbital (sleep duration), mouse. The settings on record: barbital 220 mg/kg I.P., plus forte dose utilisée (128 mg/kg). The format is in vivo.
For series [20], the system named is souris. The experiment in a line: Behavioural despair (forced immersion), mouse. The format is in vivo. The note with it: I.P., doses de 32 et 128 mg/kg. From the text:
On note la durée totale d'immobilité entre la 2ème et la 6ème minutes suivant l'immersion.

Series [21] deals with l'homme. The experiment in a line: Clinical treatment of depression, oral administration. The format is in vivo.
The test system of series [22] is souris. The note with it: I.P., plus forte dose utilisée (128 mg/kg).
Setting [23] is: dès la dose de 8 mg/kg, mais surtout aux doses de 32 mg/kg et 128 mg/kg.
[24] abbreviates: souris, 0,50 h after I.P. administration.

“Also recorded” adds a separate entry of the source.

Regarding `CC(SC(CNC(C)(C)C)c1ccccc1)C(N)=O` (stereo not drawn) [CRL 41 250, fumaratede 2-{[α-(tertiobutylaminomethyl)-benzyl]-thio}-propionamide], the “débit fémoral” value in series [1] (chien anesthésié (nembutal), dose de 19,1 mg/kg I.D.) was “augmente le débit fémoral”. Besides, in series [1] (chien anesthésié, dose de 1 mg/kg I.D.), the fréquence cardiaque entry is “provoque une légère bradycardie”. Also, the “pression artérielle” value in [1] (chien anesthésié, successive I.D. doses 0,1 to 10 mg/kg) is listed as “aucun effet sur la pression artérielle”. Moreover, the “effets vasodilatateurs (propriétés cardiovasculaires)” value in [1] (general statement) is “effets vasodilatateurs intéressants; also recorded: effets vasodilatateurs bénéfiques”. Also, the “pression artérielle diastolique, before isoprénaline” value in [2] (control 151) is 148 mmHg. The “fréquence cardiaque, before isoprénaline” value in [2] (control 180) is reported as 175 battements/minute. Moreover, the “pression artérielle diastolique, after isoprénaline” value in series [2] (isoprénaline 10 µg/kg I.V., control 43) is listed as 47 mmHg. Further, the “fréquence cardiaque, after isoprénaline” value in [2] (isoprénaline 10 µg/kg I.V., control 271) came to 265 battements/minute. For the same compound, in [3] (after dose cumulée 19,1 mg/kg I.D., control 204), the “pression artérielle systolique, before noradrénaline” value is recorded as 191 mmHg. The “pression artérielle systolique, after noradrénaline” value in [3] (noradrénaline 2 µg/kg I.V., after dose cumulée 19,1 mg/kg I.D., control 304) was 330 mmHg. For the same compound, in [3] (noradrénaline 2 µg/kg I.V., dose cumulée de 19,1 mg/kg I.D.), the “hypertension à la noradrénaline” value is given as “légèrement augmentée”. Also, the “propriétés antidépressives et sédatives” value in series [4] was “propriétés antidépressives et sédatives”. Besides, the “effect on isoprénaline response (pression artérielle diastolique, fréquence cardiaque)” value in series [5] was “ne modifie pas la pression artérielle diastolique ni la fréquence cardiaque”.
`CC(C)(C)NCC(SCC(=O)NO)c1ccccc1` (racemic) [CRL 41 214, chlorhydratede l'acide [α-(tertiobutyl-aminométhyl)-benzyl]-thioacétohydroxamique]: the “signs observed at high doses” value in series [6] is recorded as “une sédation et une dyspnée”. Besides, in series [6] (mouse, ip), the “DL-0 (dose maximale non mortelle)” value was > 256 mg/kg. Further, the “comportement global et réactivités” value in [7] (dose de 128 mg/kg) is recorded as “une mydriase modérée”; in series [7] (doses de 2 à 32 mg/kg), “aucune modification nette du comportement et des réactivités”; in [8] (dose de 16 mg/kg), “une mydriase d'une durée de 2 h qui est maximale 0,5 h après administration”; in series [8] (dose de 64 mg/kg), “une diminution de la fréquence respiratoire pendant 0,5 h et une mydriase d'une durée de 3 h qui est maximale 1 h après administration”; in [8] (doses de 1 et 4 mg/kg) it was “aucune modification nette du comportement, des réactivités, de la température rectale et du diamètre pupillaire par rapport au lot témoin”. Further, the “hypothermie induite par l'apomorphine” value in series [9] (I.P., dès la dose de 2 mg/kg, mais surtout aux doses de 32 mg/kg à 128 mg/kg) is listed as “antagonise l'hypothermie induite par l'apomorphine”. The “comportements de verticalisation et stéréotypies (apomorphine)” value in [9] (product I.P. 0,50 h before s.c. apomorphine) is recorded as “ne sont pratiquement pas modifiés”. Further, in series [10], the “stéréotypies induites par l'apomorphine” value was “laisse inchangées les stéréotypies induites par l'apomorphine”. In addition, the “stéréotypies amphétaminiques” value in series [11] is “potentialise nettement les stéréotypies amphétaminiques”. For the same compound, the “ptôsis réserpinique” value in [12] (doses 8 to 128 mg/kg) is “sans modifier le ptôsis”. Also, the “hypothermie réserpinique” value in [12] (setting [23]) is “antagonise l'hypothermie réserpinique”. Besides, in series [13] (all doses used), the “signes de stimulation cholinergique périphérique dûs à l'oxotrémorine” value is given as “ne modifie pratiquement pas les signes de stimulation cholinergique périphérique dûs à l'oxotrémorine”. For the same compound, in [13] (doses de 32 mg/kg et 128 mg/kg), the “intensité des tremblements dus à l'oxotrémorine” value is “diminue faiblement l'intensité des tremblements dus à l'oxotrémorine”. Moreover, in [13] (setting [23]), the “hypothermie induite par l'oxotrémorine” value is “s'oppose à l'hypothermie induite par l'oxotrémorine”. The “effets convulsivants de l'électrochoc” value in series [14] (setting [24]) is “ne modifie pratiquement pas les effets convulsivants”. For the same compound, the “incapacité motrice (traction)” value in series [14] (setting [24]) was “ne provoque pas d'incapacité motrice majeure”. Further, the “nombre de passages punis (test des quatre plaques)” value in [14] (setting [24]) is on record as “n'entraîne pas d'augmentation nette du nombre de passages punis”. The “effets létaux de l'électrochoc” value in series [14] (souris, I.P., dose de 128 mg/kg) is listed as “aggrave, à la dose de 128 mg/kg, les effets létaux de l'électrochoc”. The “activité motrice spontanée” value in series [15] is listed as “augmente nettement l'activité motrice spontanée de la souris”. The nombre de combats entry in series [16] is recorded as “ne modifie pratiquement pas le nombre de combats”. Besides, in series [17], the “reprise d'activité motrice chez la souris habituée à son enceinte” value is recorded as “entraîne une reprise nette d'activité motrice chez la souris habituée à son enceinte”. In addition, in series [18], the “délai d'apparition des convulsions et de la mort consécutives à une anoxie asphyxique” value is “diminue très modérément le délai d'apparition des convulsions et de la mort”. For the same compound, the “durée du sommeil barbiturique” value in series [19] is on record as “diminue nettement la durée du sommeil barbiturique”. In series [20], the “durée de l'immobilité de la souris placée en immersion forcée” value was “diminue très modérément la durée de l'immobilité de la souris placée en immersion forcée”. The “traitement des dépressions chez l'homme” value in series [21] (administration orale, gélules ou comprimés 25 mg ou 50 mg, 1 à 2 prises par jour, deux à trois semaines) is given as “bons résultats”. In [21] (clinical, oral), the “propriétés antidépressives chez les personnes agées” value is on record as “se manifestaient de façon très bénéfique chez les personnes agées”. Also, the “récupération motrice après anoxie hypobare aigue” value in series [22] is reported as “semble entraîner une amélioration très modérée de la récupération motrice”.

The values are drawn from patent publication EP0158545A1, “[Alpha-(alkylaminomethyl)-benzylthio]-acetic-acid derivatives, process for their preparation and their therapeutic use” (priority 1984, dated 1985).
